Results taken from ChEMBL document CHEMBL4808184, “Discovery and Optimization of DNA Gyrase and Topoisomerase IV Inhibitors with Potent Activity against Fluoroquinolone-Resistant Gram-Positive Bacteria” (J Med Chem, 2021).
Converted amounts (≈) assume the structure as drawn.

test system: Streptococcus pneumoniae; assay: microbe, parasite or virus in culture; conditions: ATCC 49619

| Compound | MIC [µg/mL] |
| --- | --- |
| Cc1c(N2CC[C@@H]([C@H](C)N)C2)c(F)cc2cc(C(=O)O)c(=O)n(C3CC3)c12 | 0.015 (≈ 0.0402 µM) |
| Cc1c(N2CC[C@@H]([C@H](C)N)C2)c(F)cc2ccc(=O)n(C3CC3)c12 | ≤ 0.03 |
| C[C@H](N)[C@@H]1CCN(c2c(F)cc3cc(C(=O)O)c(=O)n4c3c2OC[C@@H]4C)C1 | ≤ 0.03 |

test system: Staphylococcus aureus; assay: microbe, parasite or virus in culture; conditions: ATCC 49951

| Compound | MIC [µg/mL] |
| --- | --- |
| Cc1c(N2CC3CC3(N)C2)c(F)cc2c(CN)cc(=O)n(C3CC3)c12 (stereo not given) | 0.125 (≈ 0.365 µM) |
| Cc1c(N2CCC(C3(N)CC3)C2)c(F)cc2cc(C(=O)O)c(=O)n(C3CC3)c12 (stereo not given) | 1 (≈ 2.59 µM) |
| Cc1c(N2CC[C@@H]([C@H](C)N)C2)c(F)cc2cc(C(=O)O)c(=O)n(C3CC3)c12 | 2 (≈ 5.36 µM) |
| Cc1c(N2CC[C@@H]([C@H](C)N)C2)c(F)cc2ccc(=O)n(C3CC3)c12 | 0.06 (≈ 0.182 µM) |
| C[C@H](N)[C@@H]1CCN(c2c(F)cc3cc(C(=O)O)c(=O)n4c3c2OC[C@@H]4C)C1 | 2 (≈ 5.33 µM) |

test system: Staphylococcus aureus; assay: microbe, parasite or virus in culture; conditions: ATCC 49951; remark: another data set of the same source

| Compound | MIC [µg/mL] |
| --- | --- |
| Cc1c(N2CC[C@@H]([C@H](C)N)C2)c(F)cc2cc(C(=O)O)c(=O)n(C3CC3)c12 | 2 (≈ 5.36 µM) |
| Cc1c(N2CC[C@@H]([C@H](C)N)C2)c(F)cc2ccc(=O)n(C3CC3)c12 | ≤ 0.03 |
| C[C@H](N)[C@@H]1CCN(c2c(F)cc3cc(C(=O)O)c(=O)n4c3c2OC[C@@H]4C)C1 | 1 (≈ 2.66 µM) |

test system: not listed separately; assay: in vivo; conditions: rat, po, 5 mg/kg

| Compound | AUC(0-inf) at 24 h [µM·h] |
| --- | --- |
| Cc1c(N2CCC(C3(N)CC3)C2)c(F)cc2cc(C(=O)O)c(=O)n(C3CC3)c12 (stereo not given) | 7.62 |
| C[C@H](N)[C@@H]1CCN(c2c(F)cc3cc(C(=O)O)c(=O)n4c3c2OC[C@@H]4C)C1 | 1.6 |

test system: not listed separately; assay: in vitro; conditions: Sprague-Dawley, rat, plasma

| Compound | fraction unbound at 4 h, 10 µM |
| --- | --- |
| Cc1c(N2CCC(C3(N)CC3)C2)c(F)cc2cc(C(=O)O)c(=O)n(C3CC3)c12 (stereo not given) | 0.25 |
| Cc1c(N2CC[C@@H]([C@H](C)N)C2)c(F)cc2cc(C(=O)O)c(=O)n(C3CC3)c12 | 0.54 |
| C[C@H](N)[C@@H]1CCN(c2c(F)cc3cc(C(=O)O)c(=O)n4c3c2OC[C@@H]4C)C1 | 0.72 |

test system: not listed separately; assay: physchem; conditions: buffer, pH 7

| Compound | solubility at 24 h [µg/mL] |
| --- | --- |
| C[C@H](N)[C@@H]1CCN(c2c(F)cc3cc(C(=O)O)c(=O)n4c3c2OC[C@@H]4C)C1 | 675 (≈ 1800 µM) |

test system: HepG2; assay: cells; conditions: Homo sapiens, HepG2, 72 h

| Compound | EC50 [µM] |
| --- | --- |
| Cc1c(N2CC3CC3(N)C2)c(F)cc2c(CN)cc(=O)n(C3CC3)c12 (stereo not given) | 82 |
| Cc1c(N2CCC(C3(N)CC3)C2)c(F)cc2cc(C(=O)O)c(=O)n(C3CC3)c12 (stereo not given) | > 100 |
| Cc1c(N2CC[C@@H]([C@H](C)N)C2)c(F)cc2cc(C(=O)O)c(=O)n(C3CC3)c12 | > 100 |
| Cc1c(N2CC[C@@H]([C@H](C)N)C2)c(F)cc2ccc(=O)n(C3CC3)c12 | 93 |
| C[C@H](N)[C@@H]1CCN(c2c(F)cc3cc(C(=O)O)c(=O)n4c3c2OC[C@@H]4C)C1 | > 100 |

biological target: hERG (KCNH2) (Homo sapiens, UniProt Q12809); assay: in vitro; conditions: CHO-K1 cells expressing human ERG
Sequence (Q12809 whole entry): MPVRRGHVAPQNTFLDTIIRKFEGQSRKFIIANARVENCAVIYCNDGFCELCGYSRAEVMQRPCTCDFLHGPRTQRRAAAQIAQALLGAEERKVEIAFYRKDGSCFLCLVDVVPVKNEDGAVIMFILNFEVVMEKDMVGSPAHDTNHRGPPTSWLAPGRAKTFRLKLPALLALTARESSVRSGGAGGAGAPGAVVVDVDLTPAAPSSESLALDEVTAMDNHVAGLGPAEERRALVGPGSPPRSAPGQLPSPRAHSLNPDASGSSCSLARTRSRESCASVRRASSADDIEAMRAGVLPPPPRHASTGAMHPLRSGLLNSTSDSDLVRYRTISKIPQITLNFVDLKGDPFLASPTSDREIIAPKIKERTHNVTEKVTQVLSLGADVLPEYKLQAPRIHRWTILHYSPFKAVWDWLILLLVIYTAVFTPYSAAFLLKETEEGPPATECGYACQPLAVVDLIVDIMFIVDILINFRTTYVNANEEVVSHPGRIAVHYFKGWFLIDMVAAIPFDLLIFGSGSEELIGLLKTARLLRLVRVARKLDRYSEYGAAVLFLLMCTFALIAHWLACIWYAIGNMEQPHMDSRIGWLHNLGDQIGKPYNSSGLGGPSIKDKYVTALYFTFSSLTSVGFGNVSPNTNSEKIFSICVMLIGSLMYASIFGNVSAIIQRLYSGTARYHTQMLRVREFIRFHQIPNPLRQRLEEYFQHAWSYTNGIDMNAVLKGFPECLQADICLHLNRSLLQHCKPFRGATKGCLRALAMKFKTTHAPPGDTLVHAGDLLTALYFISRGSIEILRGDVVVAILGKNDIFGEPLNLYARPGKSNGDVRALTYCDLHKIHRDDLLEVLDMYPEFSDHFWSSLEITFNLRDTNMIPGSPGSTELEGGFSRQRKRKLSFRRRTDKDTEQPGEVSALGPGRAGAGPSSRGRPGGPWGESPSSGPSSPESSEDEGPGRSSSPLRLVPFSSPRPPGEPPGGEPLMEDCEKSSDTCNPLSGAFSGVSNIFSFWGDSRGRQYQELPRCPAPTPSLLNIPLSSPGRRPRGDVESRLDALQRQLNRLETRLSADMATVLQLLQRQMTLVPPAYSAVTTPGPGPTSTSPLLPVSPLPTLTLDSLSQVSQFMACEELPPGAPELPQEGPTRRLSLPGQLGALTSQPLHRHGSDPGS

| Compound | inhibition at 300 µM [%] |
| --- | --- |
| C[C@H](N)[C@@H]1CCN(c2c(F)cc3cc(C(=O)O)c(=O)n4c3c2OC[C@@H]4C)C1 | 8.3 |

test system: not listed separately; assay: physchem; conditions: octanol/water, pH 7.4

| Compound | logD |
| --- | --- |
| Cc1c(N2CC3CC3(N)C2)c(F)cc2c(CN)cc(=O)n(C3CC3)c12 (stereo not given) | 1.1 |
| Cc1c(N2CCC(C3(N)CC3)C2)c(F)cc2cc(C(=O)O)c(=O)n(C3CC3)c12 (stereo not given) | -0.97 |
| C[C@H](N)[C@@H]1CCN(c2c(F)cc3cc(C(=O)O)c(=O)n4c3c2OC[C@@H]4C)C1 | -1.1 |

test system: not listed separately; assay: in vivo; conditions: rat, 5 mg/kg

| Compound | Vd at 24 h [L/kg] |
| --- | --- |
| Cc1c(N2CCC(C3(N)CC3)C2)c(F)cc2cc(C(=O)O)c(=O)n(C3CC3)c12 (stereo not given) | 0.69 |
| C[C@H](N)[C@@H]1CCN(c2c(F)cc3cc(C(=O)O)c(=O)n4c3c2OC[C@@H]4C)C1 | 1.75 |

test system: Staphylococcus aureus; assay: microbe, parasite or virus in culture; conditions: ATCC 49951; remark: another data set of the same source

| Compound | MIC [µg/mL] |
| --- | --- |
| Cc1c(N2CCC(C3(N)CC3)C2)c(F)cc2cc(C(=O)O)c(=O)n(C3CC3)c12 (stereo not given) | 0.06 (≈ 0.156 µM) |
| Cc1c(N2CC[C@@H]([C@H](C)N)C2)c(F)cc2cc(C(=O)O)c(=O)n(C3CC3)c12 | 0.125 (≈ 0.335 µM) |
| Cc1c(N2CC[C@@H]([C@H](C)N)C2)c(F)cc2ccc(=O)n(C3CC3)c12 | ≤ 0.06 |
| C[C@H](N)[C@@H]1CCN(c2c(F)cc3cc(C(=O)O)c(=O)n4c3c2OC[C@@H]4C)C1 | 0.125 (≈ 0.333 µM) |

test system: not listed separately; assay: in vitro; conditions: human, Caco-2

| Compound | efflux ratio |
| --- | --- |
| C[C@H](N)[C@@H]1CCN(c2c(F)cc3cc(C(=O)O)c(=O)n4c3c2OC[C@@H]4C)C1 | 1.7 |

test system: not listed separately; assay: in vitro; conditions: CD1, mouse, plasma

| Compound | fraction unbound at 4 h, 10 µM |
| --- | --- |
| Cc1c(N2CCC(C3(N)CC3)C2)c(F)cc2cc(C(=O)O)c(=O)n(C3CC3)c12 (stereo not given) | 0.48 |
| Cc1c(N2CC[C@@H]([C@H](C)N)C2)c(F)cc2cc(C(=O)O)c(=O)n(C3CC3)c12 | 0.66 |
| C[C@H](N)[C@@H]1CCN(c2c(F)cc3cc(C(=O)O)c(=O)n4c3c2OC[C@@H]4C)C1 | 0.94 |

test system: not listed separately; assay: in vivo; conditions: rat, iv

| Compound | half-life at 24 h [h] |
| --- | --- |
| Cc1c(N2CCC(C3(N)CC3)C2)c(F)cc2cc(C(=O)O)c(=O)n(C3CC3)c12 (stereo not given) | 1.32 |
| C[C@H](N)[C@@H]1CCN(c2c(F)cc3cc(C(=O)O)c(=O)n4c3c2OC[C@@H]4C)C1 | 3.02 |

test system: not listed separately; assay: in vivo; conditions: rat, po, 5 mg/kg; remark: another data set of the same source

| Compound | Tmax at 24 h [h] |
| --- | --- |
| Cc1c(N2CCC(C3(N)CC3)C2)c(F)cc2cc(C(=O)O)c(=O)n(C3CC3)c12 (stereo not given) | 1 |
| C[C@H](N)[C@@H]1CCN(c2c(F)cc3cc(C(=O)O)c(=O)n4c3c2OC[C@@H]4C)C1 | 0.83 |

test system: not listed separately; assay: physchem; conditions: not given

| Compound | pKa |
| --- | --- |
| Cc1c(N2CC3CC3(N)C2)c(F)cc2c(CN)cc(=O)n(C3CC3)c12 (stereo not given) | 7.6 |
| Cc1c(N2CCC(C3(N)CC3)C2)c(F)cc2cc(C(=O)O)c(=O)n(C3CC3)c12 (stereo not given) | 5.2 |
| Cc1c(N2CC[C@@H]([C@H](C)N)C2)c(F)cc2cc(C(=O)O)c(=O)n(C3CC3)c12 | 5.2 |
| Cc1c(N2CC[C@@H]([C@H](C)N)C2)c(F)cc2ccc(=O)n(C3CC3)c12 | 9.6 |
| C[C@H](N)[C@@H]1CCN(c2c(F)cc3cc(C(=O)O)c(=O)n4c3c2OC[C@@H]4C)C1 | 5 |

test system: not listed separately; assay: in vitro; conditions: human, plasma

| Compound | fraction unbound at 4 h, 10 µM |
| --- | --- |
| Cc1c(N2CCC(C3(N)CC3)C2)c(F)cc2cc(C(=O)O)c(=O)n(C3CC3)c12 (stereo not given) | 0.22 |
| Cc1c(N2CC[C@@H]([C@H](C)N)C2)c(F)cc2cc(C(=O)O)c(=O)n(C3CC3)c12 | 0.54 |
| C[C@H](N)[C@@H]1CCN(c2c(F)cc3cc(C(=O)O)c(=O)n4c3c2OC[C@@H]4C)C1 | 0.8 |

test system: not listed separately; assay: in vivo; conditions: rat, po, 5 mg/kg; remark: another data set of the same source

| Compound | bioavailability at 24 h [%] |
| --- | --- |
| C[C@H](N)[C@@H]1CCN(c2c(F)cc3cc(C(=O)O)c(=O)n4c3c2OC[C@@H]4C)C1 | 66 |

test system: not listed separately; assay: in vitro; conditions: human, Caco-2; remark: another data set of the same source

| Compound | Papp A→B at 2 h, 10 µM [×10⁻⁶ cm/s] |
| --- | --- |
| C[C@H](N)[C@@H]1CCN(c2c(F)cc3cc(C(=O)O)c(=O)n4c3c2OC[C@@H]4C)C1 | 2.7 |

test system: K562; assay: cells; conditions: Homo sapiens, K562, 72 h

| Compound | EC50 [µM] |
| --- | --- |
| Cc1c(N2CC3CC3(N)C2)c(F)cc2c(CN)cc(=O)n(C3CC3)c12 (stereo not given) | 40 |
| Cc1c(N2CCC(C3(N)CC3)C2)c(F)cc2cc(C(=O)O)c(=O)n(C3CC3)c12 (stereo not given) | > 100 |
| Cc1c(N2CC[C@@H]([C@H](C)N)C2)c(F)cc2cc(C(=O)O)c(=O)n(C3CC3)c12 | > 100 |
| C[C@H](N)[C@@H]1CCN(c2c(F)cc3cc(C(=O)O)c(=O)n4c3c2OC[C@@H]4C)C1 | > 100 |

test system: not listed separately; assay: in vivo; conditions: rat, po, 5 mg/kg; remark: another data set of the same source

| Compound | Cmax at 24 h [nM] |
| --- | --- |
| Cc1c(N2CCC(C3(N)CC3)C2)c(F)cc2cc(C(=O)O)c(=O)n(C3CC3)c12 (stereo not given) | 2000 |
| C[C@H](N)[C@@H]1CCN(c2c(F)cc3cc(C(=O)O)c(=O)n4c3c2OC[C@@H]4C)C1 | 540 |

test system: not listed separately; assay: in vivo; conditions: rat, 5 mg/kg; remark: another data set of the same source

| Compound | clearance at 24 h [mL/min/kg] |
| --- | --- |
| C[C@H](N)[C@@H]1CCN(c2c(F)cc3cc(C(=O)O)c(=O)n4c3c2OC[C@@H]4C)C1 | 18.5 |

test system: Enterococcus faecalis; assay: microbe, parasite or virus in culture; conditions: ATCC 29212

| Compound | MIC [µg/mL] |
| --- | --- |
| Cc1c(N2CC[C@@H]([C@H](C)N)C2)c(F)cc2cc(C(=O)O)c(=O)n(C3CC3)c12 | 0.25 (≈ 0.669 µM) |
| Cc1c(N2CC[C@@H]([C@H](C)N)C2)c(F)cc2ccc(=O)n(C3CC3)c12 | 0.125 (≈ 0.379 µM) |
| C[C@H](N)[C@@H]1CCN(c2c(F)cc3cc(C(=O)O)c(=O)n4c3c2OC[C@@H]4C)C1 | 0.25 (≈ 0.666 µM) |
